molecular target: T1, BaF3 BRAF-KIAA1549 fusion cells (Homo sapiens, UniProt P15056); assay: BaF3 BRAF-KIAA1549 fusion cell proliferation assay (CellTiterGlo); type: cell-based; conditions: 96 hours incubation, potency code
T1 construct: The BRAF-KIAA1549 fusion mutant was subcloned into pMXs-IRES-Blasticidin (RTV-016, Cell Biolabs, San Diego, CA); fused on or other part: Q9HCM3 (UPF0606 protein KIAA1549)
Summary of the method: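 BaF3 cells stably transduced with a BRAF-KIAA1549 fusion, blasticidin-selected and growing without IL-3, were treated with compound for 96 h in RPMI/10% heat-inactivated FBS. Viability read as ATP content by CellTiterGlo luminescence, normalised to DMSO-treated cells. IC50 by Levenberg-Marquardt fit.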

T1 sequence (P15056 whole entry, change not shown, the tested form may be a part): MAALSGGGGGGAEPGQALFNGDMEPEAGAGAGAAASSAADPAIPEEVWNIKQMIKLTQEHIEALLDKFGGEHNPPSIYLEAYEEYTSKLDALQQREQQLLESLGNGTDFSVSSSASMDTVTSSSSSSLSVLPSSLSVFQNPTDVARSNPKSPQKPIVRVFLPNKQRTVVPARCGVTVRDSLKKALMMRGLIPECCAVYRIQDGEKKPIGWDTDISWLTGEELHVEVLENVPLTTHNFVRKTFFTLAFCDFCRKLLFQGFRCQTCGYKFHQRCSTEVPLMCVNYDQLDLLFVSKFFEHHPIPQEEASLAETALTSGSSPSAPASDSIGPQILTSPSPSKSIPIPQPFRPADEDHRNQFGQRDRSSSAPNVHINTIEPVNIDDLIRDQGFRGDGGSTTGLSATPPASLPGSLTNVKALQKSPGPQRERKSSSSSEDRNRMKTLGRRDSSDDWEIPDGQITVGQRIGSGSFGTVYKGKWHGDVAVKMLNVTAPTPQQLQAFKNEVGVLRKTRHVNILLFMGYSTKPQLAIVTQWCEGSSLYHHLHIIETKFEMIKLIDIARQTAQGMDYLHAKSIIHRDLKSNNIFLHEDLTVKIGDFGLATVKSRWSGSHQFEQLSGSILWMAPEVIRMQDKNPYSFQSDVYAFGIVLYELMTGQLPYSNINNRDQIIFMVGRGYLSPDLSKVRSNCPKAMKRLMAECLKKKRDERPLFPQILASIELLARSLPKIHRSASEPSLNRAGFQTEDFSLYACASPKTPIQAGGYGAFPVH

| GI50 [nM] | Structure (SMILES) |
| --- | --- |
| ≥ 500 | Cc1ccc(NC(=O)CN2CCCNCC2)cc1Nc1ncccc1-c1ncnc2[nH]cnc12 [IA-134, N-(3-((3-(9H-purin-6-yl)pyridin-2-yl)amino)-4-methylphenyl)-2-(1,4-diazepan-1-yl)acetamide] |
| ≥ 500 | Cc1ccc(NC(=O)CN2CCCN(C)CC2)cc1Nc1ncccc1-c1ncnc2[nH]cnc12 [IA-135, N-(3-((3-(9H-purin-6-yl)pyridin-2-yl)amino)-4-methylphenyl)-2-(4-methyl-1,4-diazepan-1-yl)acetamide] |
| ≥ 500 | Cc1ccc(NC(=O)CC2CCN(C)CCO2)cc1Nc1ncccc1-c1ncnc2[nH]cnc12 (centres unmarked) [IA-136, N-(3-(3-(9H-purin-6-yl)pyridin-2-ylamino)-4-methylphenyl)-2-(4-methyl-1,4-oxazepan-7-yl)acetamide] |
| < 20 | Cc1ccc(NC(=O)c2cccc(C(F)(F)F)c2)cc1Nc1ncccc1-c1ncnc2[nH]cnc12 [IA-145, N-(3-((3-(9H-purin-6-yl)pyridin-2-yl)amino)-4-methylphenyl)-3-(trifluoromethyl)benzamide] |
| ≥ 500 | Cc1nc(-c2cccnc2Nc2cc(NC(=O)c3cc(C(F)(F)F)ccn3)ccc2C)c2nc[nH]c2n1 [IA-150, N-(4-methyl-3-((3-(2-methyl-9H-purin-6-yl)pyridin-2-yl)amino)phenyl)-4-(trifluoromethyl)picolinamide] |
| ≥ 500 | Cc1ccc(NC(=O)c2cc(C(F)(F)F)ccn2)cc1Nc1ncccc1-c1nc(F)nc2[nH]cnc12 [IA-151, N-(3-(3-(2-fluoro-9H-purin-6-yl)pyridin-2-ylamino)-4-methylphenyl)-4-(trifluoromethyl)picolinamide] |
| ≥ 500 | Cc1ccc(NC(=O)c2cc(C(F)(F)F)ccn2)cc1Nc1nccc(C)c1-c1ncnc2[nH]cnc12 [IA-152] |

| Structure (SMILES) | GI50 [nM] |
| --- | --- |
| Cc1ccc(C(=O)Nc2cccc(C(F)(F)F)c2)cc1Nc1ncccc1-c1ncnc2[nH]cnc12 [II-3, 3-((3-(9H-Purin-6-yl)pyridin-2-yl)amino)-4-methyl-N-(3-(trifluoromethyl)phenyl)benzamide] | < 20 |

— patent publication US20240317752A1, “6-SUBSTITUTED-9H-PURINE DERIVATIVES AND RELATED USES” (Black Diamond Therapeutics, Inc., priority 2021, published 2024)
